# Source: patent publication US4772625A, “1,3-dioxan-5-yl-hexenoic acids” (Imperial Chemical Industries PLC, priority 1985, dated 1988)
# How the values were obtained:
# [1] = target: T1, (Oryctolagus cuniculus, UniProt Q6WQI8); experiment: Test (a): rabbit aortic strip model, TXA2 or U46619 as agonist; assay type: cell-based; details: comparison compound
# T1 construct: functional contraction assay (pA2)
# T1 sequence (Q6WQI8 1-233): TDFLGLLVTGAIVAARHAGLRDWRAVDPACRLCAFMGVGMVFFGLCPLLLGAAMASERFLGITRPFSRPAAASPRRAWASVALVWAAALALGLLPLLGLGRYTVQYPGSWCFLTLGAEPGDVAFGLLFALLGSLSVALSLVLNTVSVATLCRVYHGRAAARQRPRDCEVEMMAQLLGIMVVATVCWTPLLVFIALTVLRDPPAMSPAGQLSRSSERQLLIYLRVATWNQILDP
# Protocol: (§1) (a) The rabbit aortic strip model devised by Piper and Vane (Nature, 1969, 223, 29-35) using as agonist a freshly prepared sample of TXA2, generated by addition of arachidonic acid (25 μg) to citrated, platelet rich rabbit plasma (250 μl ) and allowing the mixture to aggregate fully over 90 seconds before use; alternatively the TXA2 mimetic agent known as U46619 (described by R. L. Jones et alia in "Chemistry, Biochemistry and Pharmacological Activity of Prostanoids" edited by S. M. Roberts and F. Scheinmann, at page 211; Pergamon Press, 1979) may be used as the agonist;
# (§2) Using the above test procedures (a)-(c), the following representative results have been obtained with the compounds of formula I (X=Y=H) wherein (i) R is isopropyl, (ii) R is t-butyl; or (iii) R is sec-butyl, respectively: […]
# TXA2 [2] = experiment: TXA2 antagonist properties (test not specified; one or other of the standard tests); details: qualitative statement
# Description: As stated earlier, the acids of formula I are antagonists of one or more of the actions of TXA2, for example certain of its actions on blood platelets, the vasculature and/or the lung.
# TXA2 [3] = target: T2, TXA2 (Oryctolagus cuniculus, UniProt Q6WQI8); experiment: Test (a): rabbit aortic strip model, TXA2 or U46619 as agonist; assay type: cell-based; details: rabbit aortic strip, ±0.05
# T2 construct: functional contraction assay (pA2)
# T2 sequence (Q6WQI8 1-233): T1 sequence (Q6WQI8 1-233)
# Protocol: as §1, §2
# [4] = target: T3, U46619 stimulated platelet aggregation (Homo sapiens, UniProt P21731); experiment: Test (b): blood platelet aggregation test, human citrated platelet-rich plasma, U46619 stimulated; assay type: cell-based
# T3 construct: aggregating human, citrated, platelet-rich plasma; from tissue; host or cells: human citrated platelet-rich plasma (platelets)
# T3 sequence (P21731 1-343): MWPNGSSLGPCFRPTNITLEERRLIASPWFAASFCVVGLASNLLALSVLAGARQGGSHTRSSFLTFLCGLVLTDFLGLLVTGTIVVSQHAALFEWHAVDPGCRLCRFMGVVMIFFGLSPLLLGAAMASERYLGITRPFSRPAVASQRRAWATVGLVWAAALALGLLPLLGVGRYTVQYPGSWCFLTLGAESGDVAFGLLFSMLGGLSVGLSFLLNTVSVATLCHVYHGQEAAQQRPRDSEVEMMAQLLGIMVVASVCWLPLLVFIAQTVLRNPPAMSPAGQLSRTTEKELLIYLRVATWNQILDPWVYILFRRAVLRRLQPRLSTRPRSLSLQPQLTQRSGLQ
# Description: (b) a blood platelet aggregation test based on that described by Born (Nature, 1962, 194, 927-929) and involving:
# (i) aggregating human, citrated, platelet-rich plasma by addition of the TXA2 mimetic agent U46619 so that a dose-response curve is generated;
# (ii) generating a dose-response curve for U46619 stimulated platelet aggregation in the presence of increasing amounts of test compound (generally in the range 10^-5 M to 10^-10 M); and
# (iii) calculating a KB value indicating potency of TXA2 antagonism for the test compound, averaged over several concentrations, from the calculated 50% response value for U46619 aggregation in the presence and absence of test compound; and
# as §2
# [5] = test system: U46619 induced bronchoconstriction; experiment: Test (c): U46619 induced bronchoconstriction, Konzett-Rossler anaesthetised guinea-pig model; assay type: in vivo; details: 2 hours after oral dosing at 0.05 mg/kg
# Description: (c) a bronchoconstriction test involving measuring the inhibition by a test compound of the bronchoconstriction induced in the Konzett-Rossler, anaesthetised guinea-pig model (as modified by Collier and James, Brit. J. Pharmacol., 1967, 30, 283-307) by intravenous administration of the TXA2 mimetic agent, U46619 and involving:
# (i) obtaining a cumulative dose-response curve to U46619 induced bronchoconstriction by intravenous administration of constant volumes of increasing concentrations of U46619 (0.2-4 μg/kg) in physiological saline solution and expressing bronchoconstriction as the maximum of that theoretically obtainable with no air flow to the test animal;
# (ii) generating a cumulative dose-response curve to U46619 induced bronchoconstriction at 30 minute intervals for 3 hours after oral dosing of test compound; and
# (iii) calculating a dose-ratio for the test compound (that is the ratio of concentration of U46619 required to cause 50% bronchoconstriction in the presence and absence of test compound) indicating the potency of TXA2 antagonism.
# as §2
# [6] = test system: U46619 induced hypertension; experiment: Test (d): U46619 induced hypertension in anaesthetised rats; assay type: in vivo, rat (Alderley Park strain)
# Protocol: (d) Male rats (Alderley Park strain) are anaesthetised with sodium pentobarbital and blood pressure is monitored at the carotid artery. The TXA2 mimetic agent U46619 is administered intravenously via the jugular vein at 5 μg/kg to induce a 20-30 mmHg (2640-3940 pascal) increase in systolic blood pressure. The process is repeated twice to ensure adequacy of response. A test compound is then administered either intravenously (via the jugular vein) or orally (via a cannula) directly into the stomach and the animal is challenged with U46619, five minutes after dosing with test compound and then successively every ten minutes until the hypertensive effect of U46619 is no longer blocked.
# Similarly, using test procedure (d) referred to above, the following representative results were obtained on inhibition of U46619 induced hypertension with the compounds of formula I referred to above: […]
# [7] = 1 hour after oral dose of 0.5 mg/kg
pA2 [1],pA2 (±0.05) (TXA2 [3]),Kb [4] [nM],SMILES,TXA2 antagonist properties (TXA2 [2]),dose ratio (U46619 bronchoconstriction) [5],"inhibition of U46619 induced hypertension [6, 7] [%]",inhibition of U46619 induced hypertension ([6]; 1 hour after oral dose of 0.1 mg/kg) [%]
5.9,–,–,"CC(C)[C@H]1OC[C@@H](C/C=C\CCCC(=O)O)[C@@H](c2ccccc2)O1 (relative stereo) [5(Z)-7-([2,4,5-cis]-2-isopropyl-4-phenyl-1,3-dioxan-5-yl)heptenoic acid, reference compound]",signficantly lower TXA2 antagonist properties,–,–,–
–,7.71,17.9,"CC(C)[C@H]1OC[C@@H](C/C=C\CCC(=O)O)[C@@H](c2ccccc2O)O1 (relative stereo) [compound (i), 4(Z)-6-([2,4,5-cis]-4-o-hydroxyphenyl-2-isopropyl-1,3-dioxan-5-yl)hexenoicacid]",–,> 75,> 70,–
–,7.86,13.1,"CC(C)(C)[C@H]1OC[C@@H](C/C=C\CCC(=O)O)[C@@H](c2ccccc2O)O1 (relative stereo) [compound (ii), 4(Z)-6-([2,4,5-cis]-2-t-butyl-4-o-hydroxyphenyl-1,3-dioxan-5-yl)hexenoic acid]",–,> 110,–,> 75
–,7.80,13.4,"CCC(C)C1OCC(CC=CCCC(=O)O)C(c2ccccc2O)O1 (stereo not drawn) [compound (iii), 4(Z)-6-([2,4,5-cis-]-2-sec-butyl-4-o-hydroxyphenyl-1,3-dioxan-5-yl)hexenoic acid]",–,> 75,> 70,–
